Laboratory results published in US20260191933A1, “PHARMACEUTICAL COMBINATIONS AND USES THEREOF” (The University of Melbourne, priority 2022, published 2026).

Legend:
[1] = system: insulin induced p-AKT signalling in the ARC; assay: I.C.V. fluorosamine: insulin-induced p-AKT in the ARC; assay type: in vivo, C57BL/6J mice; settings: following 10 days I.C.V. treatment
Method: (§1) Mice were injected intraperitoneally with vehicle (PBS) or insulin (3 mU/g, i.p., Actrapid, Nova Nordisk, Denmark) and mice were transcardially perfused (as described above) 15 min with 10% neutral buffered formalin. The brains were post-fixed for 16 h on a rocking platform at RT and then kept for two days in 30% sucrose in PBS to cryoprotect the tissue, before freezing on dry ice. 30 μm sections were cut in the coronal plane throughout the entire rostral-caudal extent of the hypothalamus. Sections were pre-treated for 10 mins in 0.3% glycine, washed in PBS-T and incubated for 10 min in 0.03% SDS. Sections were then blocked in 5% blocking buffer for 1 h at RT and incubated for 48 h with rabbit anti-p-AKT (Ser-473) (1:300; #4060, Cell Signaling Technology, Beverly, MA) in 1% blocking buffer. Sections were then incubated in 5% blocking buffer containing either goat anti-rabbit Alexa Fluor 647 (ab150083, Abcam, Cambridge, UK) or biotinylated goat anti-rabbit (BA-1000, Vector Laboratories, CA, no sodium azide in blocking buffer). […]

diet-induced obese mice [2] = assay: I.C.V. PZ6005 and/or S.C. liraglutide: I.P. GTT; assay type: in vivo, C57BL/6j mice; settings: day 14; 6 hours fasted; compared with the control treatment
Method: (§2) Metabolic measurements were undertaken in the Melbourne Mouse Metabolic Phenotyping Platform (The University of Melbourne, Australia). Glucose tolerance tests were performed on 6 h fasted conscious mice respectively by injecting D-glucose (2 mg/g of lean body mass and 1 mg/g lean mass for db/db and HFHS+STZ mice) into the peritoneal cavity and measuring glucose in tail blood immediately before and at 15, 30, 45, 60, 90 and 120 min after injection using an Accu-Check glucometer (Roche, Germany). The areas under glucose excursion curves were determined and expressed as mmol/l×min. Fasted (12 h fast) plasma insulin or glucose levels were determined using a Rat/Mouse Insulin ELISA (EZRMI-13K, Merck Millipore, CA) or an Accu-Check glucometer respectively. The HOMA-IR was calculated using the equation [(glucose×insulin)/405]. Adiposity was measured using TD-NMR minispec (Bruker Optics Inc., Billerica, MA).

[3] = system: 12-week-HFHS-diet-fed obese mice; assay: Intranasal PZ6005 in obese mice: I.P. GTT, ITT, fasting glucose; assay type: in vivo, C57BL/6J mice
Method: as §2

[4] = system: 12-week-HFHS-diet-fed obese mice; assay: Intranasal PZ6005 in obese mice: body weight, tissue-specific adiposity, fat mass; assay type: in vivo, C57BL/6J mice; settings: for body weight lost at the end of the experiment: day 14
Method: as §2

[5] = system: insulin receptor signalling within the ARC (pAKT); assay: Intranasal PZ6005: ARC pAKT +ve. cells after insulin; assay type: in vivo, C57BL/6J mice; settings: both doses, 14-day intranasal administration
Method: as §1

diet-induced obese mice [6] = assay: I.C.V. PZ6005 and/or S.C. liraglutide, 28 days: body weight, adiposity, food intake, energy expenditure; assay type: in vivo, C57BL/6j mice
Method: as §2
(§3) Mice were acclimated for 24 h and then monitored for 48 h in an environmentally controlled Promethion Metabolic Screening System (Sable Systems International, NV) fitted with indirect open circuit calorimetry, food consumption and activity monitors to measure activity, caloric intake and energy expenditure. Respiratory quotients were calculated as the ratio of CO2 production over O2 consumption respiratory exchange ratio and energy expenditure was calculated using the Weir equation (Kcal h−1=60×(0.003941×VO2+0.001106×VCO2). To account for difference in body mass/composition energy expenditure was analysed and adjusted using ANCOVA using scripts available at the National Mouse Metabolic Phenotyping Centers (MMPC, Nashville, TN, USA) Energy Expenditure Analysis Page (https://www.mmpc.org/shared/regression.aspx).

[7] = system: 12-week HFHS fed obese mice; assay: Example 21: 14-day treatment and off-treatment phase, weight rebound, body composition, metabolic rate, food intake; assay type: in vivo, C57BL/6J male mice
Method: To induce diet-induced obesity in adulthood, the mice were ad libitum access to water and high-fat-high-sugar (HFHS) diet (43% of total energy from fat, SF04-001, Speciality Feeds, Australia) starting at eight weeks of age for 12 weeks. Aged-matched chow-fed C57BL/6J male mice were ad libitum access to standard chow diet throughout full duration of the experiment.
Mice adiposity and lean mass were measured via the TD-NMR minispec (Bruker Optics Inc., USA) acquiring EchoMRI-900 Body Composition Analyser (EchoMRI LLC, USA). Interscapular brown adipose tissue, inguinal and epidermal white adipose tissues and the liver were weighed to determine tissue-specific adiposity.
At day 15, treatments were discontinued however all groups continued to receive ad libitum access to HFHS diet to assess the rebound following treatment cessation.

[8] = system: 12-week HFHS fed obese mice; assay: I.C.V. fluorosamine in obese mice: body weight, adiposity, energy expenditure, food intake; assay type: in vivo, C57BL/6J mice; settings: I.C.V. for 10 days
Method: as §2, §3
Under isoflurane anaesthetic 12-week HFHS fed C57BL/6J or AgRP-Cas9 mice were implanted stereotaxically with guide cannulas into the right lateral ventricle (0.2 mm posterior, 1.0 mm lateral from bregma). Guide cannula was positioned 1.3 mm above the injection site (1 mm ventral to the surface of the skull). AgRP-Cas9 mice were treated with either AAV-gScrambled or AAV-gIR and underwent guide cannula placement 7 days post AAV administration. Mice were administered I.C.V. vehicle (ddH2O), fluorosamine (100 μg/animal/day or 250 μgl/animal/day) in a volume of 2 μl/animal and all compounds were delivered approximately 1 h before lights off (7 pm).

ARC CSPG-ECM = assay: I.C.V. PZ6005 and/or S.C. liraglutide, 28-day treatment: ARC CSPG-ECM (WFA); assay type: in vivo, C57BL/6j mice; settings: PZ6005 100 μg/animal I.C.V. every other day first 14 days; liraglutide 200 μg/kg/day S.C. 28 days
Method: All image quantification was performed in Image J (NIH) software (NIH, MA). Raw images underwent background subtraction using a rolling ball algorithm to minimize background and any potential variance in tissue autofluorescence. To quantify area and intensity of the CSPG-ECM within each brain region (ARC, VMH or RSG cortex) images were thresholded and binarized to create a region of interest (ROI) mask of only the CSPG-ECM. For each brain area, CSPG-ECM ROI area (μm^2) and intensity (sum of all pixel intensities within the ROI) was calculated. This process was automated to minimise bias and to account for differences in brain nuclei size across multiple images. Brain nuclei were defined in accordance with the Paxinos and Franklin mouse brain atlas (http://labs.gaidi.ca/mouse-brain-atlas/). The area and intensity of CSPG-ECM within each region was normalised to the respective control.

[9] = intranasal 1 mg treatment, 14 days

CC(=O)NC1C(OC(C)=O)OC(COC(C)=O)[C@@H](F)C1OC(C)=O (stereo partly drawn) [PZ6005, per-O-acetylated-4-F-N-acetylglucosamine]
insulin induced p-AKT signalling in the ARC [1]: enhanced
glucose excursion (I.P. GTT) (diet-induced obese mice [2]): reduced glucose excursion
fasting (12 hrs) glucose level ([3]; both doses of intranasal treatment): Reduction
insulin sensitivity (I.P. ITT) ([3]; intranasal 1 or 5 mg/animal/day, 4 hrs fasting): enhanced insulin sensitivity
glucose tolerance (I.P. GTT) ([3]; intranasal 1 or 5 mg/animal/day, 6 hrs fasting, vs control littermates): better glucose tolerance
whole-body metabolic improvements observed with intracerebroventricular delivery ([4]; diet-induced obese mice, intranasal 14 days): recapitulated
mass of epiWAT, BAT and liver [4, 9]: decreased
post-treatment fat mass decreased by, compared to the pre-treatment mass [4, 9]: 12.59±2.29%
body weight lost at the end of the experiment ([4]; intranasal 1 mg treatment): 16.32±1.41%
day from which weight was robustly decreased ([4]; intranasal 1 mg/animal/day): 7 days
post-treatment fat mass diminished by, compared to the pre-treatment mass ([4]; intranasal 5 mg treatment, 14 days): 23.21±9.27%
day from which weight was robustly decreased ([4]; intranasal 5 mg/animal/day): 3 days
body weight lost at the end of the experiment ([4]; intranasal highest dose (5 mg)): 6.36±0.88%
tissue mass ([4]; intranasal highest dose, 14 days): remarkedly reduced
ARC pAKT +ve. cells [5]: robust increase
mass of ingWAT, epiWAT and the liver (diet-induced obese mice [6]; 28-day treatment, compared with control littermates): lower mass
difference in fat mass between the mid- and post-treatment (diet-induced obese mice [6]; 14 days after last PZ6005 dose): no significant difference
energy expenditure and oxygen consumption (diet-induced obese mice [6]; Day 8-Day 11 of the treatment, day and night): consumed more energy
mean percentage change in weight (diet-induced obese mice [6]; day 28, PZ6005 100 μg/animal I.C.V. every other day first 14 days, liraglutide 200 μg/kg/day S.C. 28 days): −13.02±1.15%
baseline fat mass, without affecting lean mass ([7]; 14 days after terminating treatments, compared to vehicle and liraglutide alone): significant decrease
mean weight loss from baseline (day 0) ([7]; day 14, PZ6005 100 μg/animal I.C.V. every second day, liraglutide 200 μg/kg daily): 15.08±1.45%
liver mass ([7]; end of experiment, vs other littermates): lower liver mass
day of return to baseline body weight ([7]; off-treatment phase): 30.00 ± 1.72 days
oxygen consumption and whole-body energy expenditure ([7]; treatment phase, without effects on ambulatory activity): elevated
adiposity [8]: reduced adiposity
body weight [8]: promoted weight loss
energy expenditure ([8]; independently of ambulatory activity): enhanced energy expenditure
food intake ([8]; through enhanced satiety): supressed food intake
ARC CSPG-ECM intensity reduced by, compared with the mice receiving liraglutide (ARC CSPG-ECM): 22.65±7.851%
CSPG-ECM area lower than liraglutide group (ARC CSPG-ECM): 31.56±3.73%
